Source: ChEMBL document CHEMBL5608189, “Design and synthesis of unique indole-benzosulfonamide oleanolic acid derivatives as potent antibacterial agents against MRSA” (Eur J Med Chem, 2024)
In brackets after ≈: the same amount, converted by molar mass.

How the values were obtained:
Type in all cases: functional
[1] = system: Staphylococcus epidermidis; experiment: Antibacterial activity against Staphylococcus epidermidis ATCC 12228 measured after 24 hrs by susceptibility assay
Staphylococcus aureus [2] = experiment: Antibacterial activity against methicillin-resistant Staphylococcus aureus measured after 24 hrs by susceptibility assay
Staphylococcus aureus [3] = experiment: Antibacterial activity against Staphylococcus aureus ATCC 6538 measured after 24 hrs by susceptibility assay
Staphylococcus aureus [4] = experiment: Antibacterial activity against Staphylococcus aureus ATCC 29213 measured after 24 hrs by susceptibility assay

Row | SMILES | MIC [1] [µM] | MIC (Staphylococcus aureus [2]) [µM] | MIC (Staphylococcus aureus [3]) [µM] | MIC (Staphylococcus aureus [4]) [µM]
1 | Cc1ccc(S(=O)(=O)NC(=O)[C@]23CCC(C)(C)C[C@H]2C2=CC[C@@H]4[C@@]5(C)Cc6c([nH]c7ccc(C(=O)O)cc67)C(C)(C)[C@@H]5CC[C@@]4(C)[C@]2(C)CC3)cc1 | 1 (≈ 0.725 µg/mL) | 2 (≈ 1.45 µg/mL) | 1 (≈ 0.725 µg/mL) | 1 (≈ 0.725 µg/mL)
2 | CC1(C)CC[C@]2(C(=O)Nc3ccc(-c4ccccc4)cc3)CC[C@]3(C)C(=CC[C@@H]4[C@@]5(C)Cc6c([nH]c7cccc(C(=O)O)c67)C(C)(C)[C@@H]5CC[C@]43C)[C@@H]2C1 | 64 (≈ 46.3 µg/mL) | 256 (≈ 185 µg/mL) | 32 (≈ 23.1 µg/mL) | 128 (≈ 92.5 µg/mL)
3 | CN1CCN(C(=O)[C@]23CCC(C)(C)C[C@H]2C2=CC[C@@H]4[C@@]5(C)Cc6c([nH]c7cc(C(=O)O)ccc67)C(C)(C)[C@@H]5CC[C@@]4(C)[C@]2(C)CC3)CC1 | 64 (≈ 41.9 µg/mL) | 256 (≈ 167 µg/mL) | > 256 | > 256
4 | CC1(C)CC[C@]2(C(=O)NS(=O)(=O)c3ccccc3)CC[C@]3(C)C(=CC[C@@H]4[C@@]5(C)Cc6c([nH]c7ccc(F)cc67)C(C)(C)[C@@H]5CC[C@]43C)[C@@H]2C1 | > 256 | > 256 | > 256 | > 256
5 | CC1(C)CC[C@]2(C(=O)NS(=O)(=O)c3ccc(Cl)cc3)CC[C@]3(C)C(=CC[C@@H]4[C@@]5(C)Cc6c([nH]c7cc(C(=O)O)ccc67)C(C)(C)[C@@H]5CC[C@]43C)[C@@H]2C1 | 1 (≈ 0.745 µg/mL) | 2 (≈ 1.49 µg/mL) | 0.5 (≈ 0.373 µg/mL) | 2 (≈ 1.49 µg/mL)
6 | CC1(C)CC[C@]2(C(=O)NS(=O)(=O)c3ccc(Cl)cc3)CC[C@]3(C)C(=CC[C@@H]4[C@@]5(C)Cc6c([nH]c7ccc(C(=O)O)cc67)C(C)(C)[C@@H]5CC[C@]43C)[C@@H]2C1 | 1 (≈ 0.745 µg/mL) | 1 (≈ 0.745 µg/mL) | 0.5 (≈ 0.373 µg/mL) | 1 (≈ 0.745 µg/mL)
7 | CN1CCN(C(=O)[C@]23CCC(C)(C)C[C@H]2C2=CC[C@@H]4[C@@]5(C)Cc6c([nH]c7c(C(=O)O)cccc67)C(C)(C)[C@@H]5CC[C@@]4(C)[C@]2(C)CC3)CC1 | 128 (≈ 83.7 µg/mL) | > 256 | > 256 | > 256
8 | CC1(C)CC[C@]2(C(=O)NS(=O)(=O)c3ccccc3)CC[C@]3(C)C(=CC[C@@H]4[C@@]5(C)CCC(=O)C(C)(C)[C@@H]5CC[C@]43C)[C@@H]2C1 | > 256 | > 256 | 128 (≈ 76 µg/mL) | > 256
9 | CN[C@H](CC(C)C)C(=O)N[C@H]1C(=O)N[C@@H](CC(N)=O)C(=O)N[C@H]2C(=O)N[C@H]3C(=O)N[C@H](C(=O)N[C@H](C(=O)O)c4cc(O)cc(O)c4-c4cc3ccc4O)[C@H](O)c3ccc(c(Cl)c3)Oc3cc2cc(c3O[C@@H]2O[C@H](CO)[C@@H](O)[C@H](O)[C@H]2O[C@H]2C[C@](C)(N)[C@H](O)[C@H](C)O2)Oc2ccc(cc2Cl)[C@H]1O [VANCOMYCIN] | 0.5 (≈ 0.725 µg/mL) | 0.5 (≈ 0.725 µg/mL) | 0.5 (≈ 0.725 µg/mL) | 0.5 (≈ 0.725 µg/mL)
10 | CC1(C)CC[C@]2(C(=O)NS(=O)(=O)c3ccc(C(=O)O)cc3)CC[C@]3(C)C(=CC[C@@H]4[C@@]5(C)CCC(=O)C(C)(C)[C@@H]5CC[C@]43C)[C@@H]2C1 | 256 (≈ 163 µg/mL) | 256 (≈ 163 µg/mL) | 64 (≈ 40.8 µg/mL) | 128 (≈ 81.6 µg/mL)
11 | CC1(C)CC[C@]2(C(=O)NS(=O)(=O)c3ccc(C(=O)O)cc3)CC[C@]3(C)C(=CC[C@@H]4[C@@]5(C)Cc6c([nH]c7c(C(=O)O)cccc67)C(C)(C)[C@@H]5CC[C@]43C)[C@@H]2C1 | 1 (≈ 0.755 µg/mL) | 1 (≈ 0.755 µg/mL) | 0.5 (≈ 0.377 µg/mL) | 2 (≈ 1.51 µg/mL)
12 | CC1(C)CC[C@]2(C(=O)NS(=O)(=O)c3ccc(C(=O)O)cc3)CC[C@]3(C)C(=CC[C@@H]4[C@@]5(C)Cc6c([nH]c7cc(C(=O)O)ccc67)C(C)(C)[C@@H]5CC[C@]43C)[C@@H]2C1 | 4 (≈ 3.02 µg/mL) | 2 (≈ 1.51 µg/mL) | 1 (≈ 0.755 µg/mL) | 2 (≈ 1.51 µg/mL)
13 | COc1ccc(S(=O)(=O)NC(=O)[C@]23CCC(C)(C)C[C@H]2C2=CC[C@@H]4[C@@]5(C)Cc6c([nH]c7cc(C(=O)O)ccc67)C(C)(C)[C@@H]5CC[C@@]4(C)[C@]2(C)CC3)cc1 | 2 (≈ 1.48 µg/mL) | 4 (≈ 2.96 µg/mL) | 1 (≈ 0.741 µg/mL) | 4 (≈ 2.96 µg/mL)
14 | CC1(C)CC[C@]2(C(=O)Nc3ccc(-c4ccccc4)cc3)CC[C@]3(C)C(=CC[C@@H]4[C@@]5(C)CCC(=O)C(C)(C)[C@@H]5CC[C@]43C)[C@@H]2C1 | > 256 | > 256 | > 256 | > 256
15 | Cc1ccc(S(=O)(=O)NC(=O)[C@]23CCC(C)(C)C[C@H]2C2=CC[C@@H]4[C@@]5(C)Cc6c([nH]c7cccc(C(=O)O)c67)C(C)(C)[C@@H]5CC[C@@]4(C)[C@]2(C)CC3)cc1 | 4 (≈ 2.9 µg/mL) | 4 (≈ 2.9 µg/mL) | 1 (≈ 0.725 µg/mL) | 4 (≈ 2.9 µg/mL)
16 | CC1(C)CC[C@]2(C(=O)Nc3ccc(-c4ccccc4)cc3)CC[C@]3(C)C(=CC[C@@H]4[C@@]5(C)Cc6c([nH]c7ccc(C(=O)O)cc67)C(C)(C)[C@@H]5CC[C@]43C)[C@@H]2C1 | > 256 | > 256 | > 256 | > 256
17 | CC1(C)CC[C@]2(C(=O)O)CC[C@]3(C)C(=CC[C@@H]4[C@@]5(C)CC[C@H](O)C(C)(C)[C@@H]5CC[C@]43C)[C@@H]2C1 [OLEANOLIC_ACID] | 32 (≈ 14.6 µg/mL) | 32 (≈ 14.6 µg/mL) | 32 (≈ 14.6 µg/mL) | 32 (≈ 14.6 µg/mL)

Row | SMILES | MIC [1] [µM] | MIC (Staphylococcus aureus [2]) [µM] | MIC (Staphylococcus aureus [3]) [µM] | MIC (Staphylococcus aureus [4]) [µM]
18 | CC1(C)CC[C@]2(C(=O)NS(=O)(=O)c3ccc(Cl)cc3)CC[C@]3(C)C(=CC[C@@H]4[C@@]5(C)CCC(=O)C(C)(C)[C@@H]5CC[C@]43C)[C@@H]2C1 | 4 (≈ 2.51 µg/mL) | 32 (≈ 20.1 µg/mL) | 4 (≈ 2.51 µg/mL) | 8 (≈ 5.03 µg/mL)
19 | COc1ccc(S(=O)(=O)NC(=O)[C@]23CCC(C)(C)C[C@H]2C2=CC[C@@H]4[C@@]5(C)Cc6c([nH]c7cccc(C(=O)O)c67)C(C)(C)[C@@H]5CC[C@@]4(C)[C@]2(C)CC3)cc1 | 4 (≈ 2.96 µg/mL) | 4 (≈ 2.96 µg/mL) | 2 (≈ 1.48 µg/mL) | 8 (≈ 5.93 µg/mL)
20 | CC1(C)CC[C@]2(C(=O)Nc3ccc(-c4ccccc4)cc3)CC[C@]3(C)C(=CC[C@@H]4[C@@]5(C)Cc6c([nH]c7c(C(=O)O)cccc67)C(C)(C)[C@@H]5CC[C@]43C)[C@@H]2C1 | > 256 | > 256 | > 256 | > 256
21 | Cc1ccc(S(=O)(=O)NC(=O)[C@]23CCC(C)(C)C[C@H]2C2=CC[C@@H]4[C@@]5(C)Cc6c([nH]c7cc(C(=O)O)ccc67)C(C)(C)[C@@H]5CC[C@@]4(C)[C@]2(C)CC3)cc1 | 1 (≈ 0.725 µg/mL) | 2 (≈ 1.45 µg/mL) | 1 (≈ 0.725 µg/mL) | 2 (≈ 1.45 µg/mL)
22 | Cc1ccc(S(=O)(=O)NC(=O)[C@]23CCC(C)(C)C[C@H]2C2=CC[C@@H]4[C@@]5(C)CCC(=O)C(C)(C)[C@@H]5CC[C@@]4(C)[C@]2(C)CC3)cc1 | > 256 | > 256 | > 256 | > 256
23 | CN1CCN(C(=O)[C@]23CCC(C)(C)C[C@H]2C2=CC[C@@H]4[C@@]5(C)Cc6c([nH]c7cccc(C(=O)O)c67)C(C)(C)[C@@H]5CC[C@@]4(C)[C@]2(C)CC3)CC1 | > 256 | > 256 | > 256 | > 256
24 | COc1cccc(OC)c1C(=O)N[C@@H]1C(=O)N2[C@@H]1SC(C)(C)[C@@H]2C(=O)O [METHICILLIN] | 2 (≈ 0.761 µg/mL) | 256 (≈ 97.4 µg/mL) | 4 (≈ 1.52 µg/mL) | 2 (≈ 0.761 µg/mL)
25 | CC1(C)CC[C@]2(C(=O)NS(=O)(=O)c3ccc(Cl)cc3)CC[C@]3(C)C(=CC[C@@H]4[C@@]5(C)Cc6c([nH]c7cccc(C(=O)O)c67)C(C)(C)[C@@H]5CC[C@]43C)[C@@H]2C1 | 2 (≈ 1.49 µg/mL) | 2 (≈ 1.49 µg/mL) | 1 (≈ 0.745 µg/mL) | 2 (≈ 1.49 µg/mL)
26 | COc1ccc(S(=O)(=O)NC(=O)[C@]23CCC(C)(C)C[C@H]2C2=CC[C@@H]4[C@@]5(C)Cc6c([nH]c7ccc(C(=O)O)cc67)C(C)(C)[C@@H]5CC[C@@]4(C)[C@]2(C)CC3)cc1 | 2 (≈ 1.48 µg/mL) | 2 (≈ 1.48 µg/mL) | 0.5 (≈ 0.371 µg/mL) | 2 (≈ 1.48 µg/mL)
27 | COc1ccc(S(=O)(=O)NC(=O)[C@]23CCC(C)(C)C[C@H]2C2=CC[C@@H]4[C@@]5(C)Cc6c([nH]c7c(C(=O)O)cccc67)C(C)(C)[C@@H]5CC[C@@]4(C)[C@]2(C)CC3)cc1 | 2 (≈ 1.48 µg/mL) | 4 (≈ 2.96 µg/mL) | 2 (≈ 1.48 µg/mL) | 1 (≈ 0.741 µg/mL)
28 | COc1ccc(S(=O)(=O)NC(=O)[C@]23CCC(C)(C)C[C@H]2C2=CC[C@@H]4[C@@]5(C)CCC(=O)C(C)(C)[C@@H]5CC[C@@]4(C)[C@]2(C)CC3)cc1 | > 256 | > 256 | > 256 | > 256
29 | CC1(C)CC[C@]2(C(=O)NS(=O)(=O)c3ccccc3)CC[C@]3(C)C(=CC[C@@H]4[C@@]5(C)Cc6c([nH]c7ccc(Br)cc67)C(C)(C)[C@@H]5CC[C@]43C)[C@@H]2C1 | > 256 | > 256 | > 256 | > 256
30 | CC(=O)c1ccc2c3c([nH]c2c1)C(C)(C)[C@@H]1CC[C@]2(C)[C@H](CC=C4[C@@H]5CC(C)(C)CC[C@]5(C(=O)NS(=O)(=O)c5ccccc5)CC[C@]42C)[C@@]1(C)C3 | 2 (≈ 1.42 µg/mL) | 2 (≈ 1.42 µg/mL) | 1 (≈ 0.709 µg/mL) | 2 (≈ 1.42 µg/mL)
31 | CN1CCN(C(=O)[C@]23CCC(C)(C)C[C@H]2C2=CC[C@@H]4[C@@]5(C)CCC(=O)C(C)(C)[C@@H]5CC[C@@]4(C)[C@]2(C)CC3)CC1 | 64 (≈ 34.4 µg/mL) | > 256 | 64 (≈ 34.4 µg/mL) | 32 (≈ 17.2 µg/mL)
32 | CC1(C)CC[C@]2(C(=O)Nc3ccc(-c4ccccc4)cc3)CC[C@]3(C)C(=CC[C@@H]4[C@@]5(C)Cc6c([nH]c7cc(C(=O)O)ccc67)C(C)(C)[C@@H]5CC[C@]43C)[C@@H]2C1 | > 256 | > 256 | > 256 | > 256
33 | CC1(C)CC[C@]2(C(=O)NS(=O)(=O)c3ccccc3)CC[C@]3(C)C(=CC[C@@H]4[C@@]5(C)Cc6c([nH]c7ccc(Cl)cc67)C(C)(C)[C@@H]5CC[C@]43C)[C@@H]2C1 | > 256 | > 256 | > 256 | > 256
